Data on seven compounds can be found in ChEMBL document CHEMBL1148456, “Structure-based design and synthesis of non-nucleoside, potent, and orally bioavailable adenosine deaminase inhibitors” (J Med Chem, 2004).

In brackets after ≈: the same amount, converted by molar mass.

The subject of data set [1] is Mus musculus. Kind of data set: Antitumor activity after administration (i.p.) in mice U937 cells at a dose of 0.025 mg/kg. Format: functional, U-937. The following applies: route intraperitoneal.
Data set [2] relates to Mus musculus. Kind of data set: Antitumor activity after administration (i.p.) in mice U937 cells at a dose of 2.5 mg/kg. The settings on record: route intraperitoneal.
Data set [3] relates to Mus musculus. Put plainly: Antitumor activity after administration (i.p.) in mice U937 cells at a dose of 0.25 mg/kg. The following applies: route intraperitoneal.
The subject of data set [4] is Mus musculus. Kind of data set: Antitumor activity after administration (p.o.) with U937 cells in mice at a dose of 10 mg/kg. Format: functional, U-937. The settings on record: route oral.
Data set [5] in a line: In vitro clearance in human liver microsomes. In kind it is ADME, Microsome. The settings on record: read-out: Clearance.
Data set [6] is described as follows: Oral bioavailability in dog (dose 10 mg/kg). In kind it is ADME, organism-based, Canis lupus familiaris. The settings on record: in vivo.
The nature of data set [7]: Oral bioavailability in rat (dose 10 mg/kg). Format: ADME, organism-based. The following applies: in vivo.
Data set [8] in a line: Half-life in rat after po administration at a dose of 10 mg/kg. Format: ADME, organism-based. More on the design: dose 10 mg/kg, route oral. The settings on record: in vivo.
The nature of data set [9]: AUC in rat after po administration at a dose of 10 mg/kg. Format: ADME, organism-based. More on the design: dose 10 mg/kg, route oral. The settings on record: plasma, read-out: AUC 0-24h.
The nature of data set [10]: (§1) In vitro clearance in rat liver microsomes. Format: ADME, Microsome. The settings on record: read-out: Clearance.
Data set [11] can be described thus: Solubility was determined. Format: physicochemical.
Data set [12] can be described thus: (§2) In vitro clearance in dog liver microsomes. The settings on record: read-out: Clearance. Format: ADME, Canis lupus familiaris, Microsome.
The species named for the next data set is Rattus norvegicus. Described as §1. In kind it is ADME, Microsome.
Data set [13] can be described thus: Maximum plasma concentration in rat after po administration. More on the design: route oral. In kind it is ADME, organism-based.
Data set [14] concerns Mus musculus. Put plainly: Antitumor activity after administration (p.o.) in mice U937 cells at a dose of 10 mg/kg twice daily dosing (b.i.d.). Format: functional, U-937. The settings on record: route oral.
The subject of data set [15] is Mus musculus. Kind of data set: Antitumor activity after administration (p.o.) in mice U937 cells at a dose of 32 mg/kg once daily dosing (u.i.d.). Format: functional, U-937. The settings on record: route oral.
The test system of data set [16] is Mus musculus. Kind of data set: Antitumor activity after administration (p.o.) in mice U937 cells at a dose of 32 mg/kg twice daily dosing (b.i.d.). In kind it is functional, U-937. The settings on record: route oral.
For data set [17], the target named is T1, Adenosine deaminase (Homo sapiens) (UniProt P00813).
T1 sequence (whole entry): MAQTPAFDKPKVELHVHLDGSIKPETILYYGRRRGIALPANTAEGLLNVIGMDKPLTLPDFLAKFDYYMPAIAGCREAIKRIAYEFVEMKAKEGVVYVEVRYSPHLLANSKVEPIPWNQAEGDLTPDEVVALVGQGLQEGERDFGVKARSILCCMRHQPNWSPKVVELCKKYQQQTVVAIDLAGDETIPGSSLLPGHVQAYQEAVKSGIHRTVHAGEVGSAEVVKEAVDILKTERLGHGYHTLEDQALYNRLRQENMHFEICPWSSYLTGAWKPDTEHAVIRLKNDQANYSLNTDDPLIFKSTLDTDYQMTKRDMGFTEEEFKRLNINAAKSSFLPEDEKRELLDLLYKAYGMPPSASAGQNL
The following applies: Rattus norvegicus.
Description: In vivo anti-inflammatory activity against adenosine deaminase (ADA) in the adjuvant arthritis model in rat (p.o.)

The species entered for another data set is Canis familiaris. The description is as §2. In kind it is ADME, Canis lupus familiaris, Microsome.

For the compound `OC[C@H]1O[C@@H](n2cnc3c2N=CNC[C@H]3O)C[C@@H]1O` [PENTOSTATIN], the MST came to 28.5 days with Mus musculus [1], 42.5 days in the data set with Mus musculus [2] and 34 days in the data set with Mus musculus [3].

The compound `Nc1ncnc2c1ncn2[C@@H]1O[C@H](CO)[C@@H](O)[C@@H]1O` [VIDARABINE] registered an MST in the data set on Mus musculus [4] of 23.5 days.

Consider `C[C@H](O)[C@@H](CCc1cccc2ccccc12)n1cnc(C(N)=O)c1`, for which the CLint scaled in data set [5] is 45 mL/min/kg; in data set [10], 307 mL/min/kg. The bioavailability in data set [6] was found to be 38%; in [7] it was 30%. In data set [8], this compound showed a half-life of 0.66 h. Moreover, in [9], the exposure (AUC) was 1370 ng·h/mL. In [11], the Solubility is 481 µg/mL (≈ 1490 µM).

For `Cn1c(CCC(=O)Nc2ccc3ccn(CC[C@H](CO)n4cnc(C(N)=O)c4)c3c2)nc2ccccc21`, the CLint scaled in [5] was found to be 123 mL/min/kg; in data set [12], 97 mL/min/kg. In addition, the AUC in data set [9] was below 100 ng·h/mL. Besides, in the data set filed under Rattus norvegicus, the Clearance turned out to be 35 mL/min/kg. This compound returned a maximum concentration (Cmax) in data set [13] below 100 ng/mL. The compound further came in with a Solubility in [11] of 4.2 µg/mL (≈ 8.41 µM).

As for `C[C@H](O)[C@@H](CCOc1ccc2ccccc2c1)n1cnc(C(N)=O)c1.Cl`, the MST with Mus musculus [14] stood at 34 days; in the data set on Mus musculus [15], 38 days; in the data set with Mus musculus [16], 42.5 days.

Regarding `C[C@H](O)[C@@H](CCc1cccc(Cl)c1Cl)n1cnc(C(N)=O)c1`, the figures for the CLint scaled in data set [5] and in data set [10] were 4.5 mL/min/kg and 111 mL/min/kg, respectively. Further, the bioavailability in data set [6] was 43%; in data set [7], 44%. In addition, the half-life in data set [8] is 1.66 h. The AUC in data set [9] stood at 2110 ng·h/mL. This compound showed a Solubility in [11] of 500 µg/mL (≈ 1460 µM). In data set [17], this compound showed an ED30 of 1.6 mg/kg.

In the case of `C[C@H](O)[C@@H](CCOc1ccc2ccccc2c1)n1cnc(C(N)=O)c1`, the CLint scaled is 3.8 mL/min/kg in data set [5] and 79 mL/min/kg in data set [10]. For the same compound, the Clearance in the data set filed under Canis familiaris was found to be 11 mL/min/kg. In addition, the bioavailability stood at 91% in data set [6] and 42% in data set [7]. The same compound gave a half-life in data set [8] of 1.12 h. Moreover, in [9], the AUC was 1850 ng·h/mL. The compound further showed a Cmax in [13] of 970 ng/mL. This compound showed a Solubility in data set [11] of 80 µg/mL (≈ 236 µM). In addition, the MST in the data set with Mus musculus [14] came out at 30 days; in the data set with Mus musculus [15] it was 30 days; in the data set with Mus musculus [16], 35.5 days.
